Source: ChEMBL document CHEMBL1681677 (Bioorg Med Chem Lett, 2011)

Assays:
Carbonic anhydrase 2 = Carbonic anhydrase 2 (Homo sapiens, UniProt P00918)
[1] = target: Carbonic anhydrase 5A, mitochondrial (Homo sapiens, UniProt P35218)
[2] = target: Carbonic anhydrase 5B, mitochondrial (Homo sapiens, UniProt Q9Y2D0)
Carbonic anhydrase 1 = Carbonic anhydrase 1 (Homo sapiens, UniProt P00915)
Sequence of Carbonic anhydrase 1 (P00915 whole entry): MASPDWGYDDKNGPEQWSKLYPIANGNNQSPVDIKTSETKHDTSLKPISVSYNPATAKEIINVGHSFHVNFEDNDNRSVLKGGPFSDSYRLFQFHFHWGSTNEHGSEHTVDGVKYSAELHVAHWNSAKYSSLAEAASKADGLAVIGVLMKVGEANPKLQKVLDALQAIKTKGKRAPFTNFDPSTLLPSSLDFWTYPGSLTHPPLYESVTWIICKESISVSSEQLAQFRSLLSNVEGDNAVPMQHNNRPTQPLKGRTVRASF

Sequence of Carbonic anhydrase 5B, mitochondrial (Q9Y2D0 whole entry): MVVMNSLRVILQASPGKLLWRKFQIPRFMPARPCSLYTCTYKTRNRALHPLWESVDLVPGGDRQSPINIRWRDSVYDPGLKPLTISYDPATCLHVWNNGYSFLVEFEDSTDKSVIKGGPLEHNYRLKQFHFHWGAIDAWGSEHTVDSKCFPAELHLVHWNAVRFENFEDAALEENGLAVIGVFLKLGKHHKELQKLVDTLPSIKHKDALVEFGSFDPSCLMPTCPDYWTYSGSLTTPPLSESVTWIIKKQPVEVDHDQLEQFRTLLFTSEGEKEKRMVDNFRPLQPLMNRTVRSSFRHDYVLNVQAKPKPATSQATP
Sequence of Carbonic anhydrase 5A, mitochondrial (P35218 whole entry): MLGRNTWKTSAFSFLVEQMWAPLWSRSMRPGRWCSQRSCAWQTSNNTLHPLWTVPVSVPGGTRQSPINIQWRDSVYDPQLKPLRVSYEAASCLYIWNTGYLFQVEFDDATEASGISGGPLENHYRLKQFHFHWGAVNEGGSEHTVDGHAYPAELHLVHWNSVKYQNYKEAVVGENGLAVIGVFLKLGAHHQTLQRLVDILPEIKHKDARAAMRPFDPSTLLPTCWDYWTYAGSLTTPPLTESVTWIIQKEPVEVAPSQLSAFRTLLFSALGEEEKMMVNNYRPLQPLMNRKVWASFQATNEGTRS

Ki (Carbonic anhydrase 2) [nM] | Ki [1] [nM] | Ki [2] [nM] | Ki (Carbonic anhydrase 1) [nM] | SMILES
1560 | 16.6 | 40.3 | 920 | CC1(C)C2CC[C@]1(CS(=O)(=O)NCc1ccc(S(N)(=O)=O)cc1)C(=O)C2
2460 | 27.5 | 67.3 | 1040 | CC1(C)C2CC[C@@]1(CS(=O)(=O)NCc1ccc(S(N)(=O)=O)cc1)C(=O)C2
